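Method: 48-hour compound exposure of cells in 96-well plates, five concentrations, linear interpolation of endpoints. GI50 marks 50% less growth. TGI is the concentration that stops growth completely.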
Experiments:
Assay in all cases: DTP human tumour cell line panel, 48 h
786-0 renal = system: 786-0 renal
A498 renal = system: A498 renal
A549 NSCLC = system: A549 NSCLC
ACHN renal = system: ACHN renal
BT-549 breast = system: BT-549 breast
CAKI-1 renal = system: CAKI-1 renal
CCRF-CEM leukemia = system: CCRF-CEM leukemia
COLO 205 colon = system: COLO 205 colon
DU-145 prostate = system: DU-145 prostate
EKVX NSCLC = system: EKVX NSCLC
HCC-2998 colon = system: HCC-2998 colon
HCT-116 colon = system: HCT-116 colon
HCT-15 colon = system: HCT-15 colon
HOP-62 NSCLC = system: HOP-62 NSCLC
HOP-92 NSCLC = system: HOP-92 NSCLC
HS 578T breast = system: HS 578T breast
HT29 colon = system: HT29 colon
IGROV1 ovarian = system: IGROV1 ovarian
KM12 colon = system: KM12 colon
LOX IMVI melanoma = system: LOX IMVI melanoma
M14 melanoma = system: M14 melanoma
MALME-3M melanoma = system: MALME-3M melanoma
MCF7 breast = system: MCF7 breast
MDA-MB-231 breast = system: MDA-MB-231 breast
MDA-MB-435 = system: MDA-MB-435
NCI-H226 lung = system: NCI-H226 lung
NCI-H460 lung = system: NCI-H460 lung
NCI-H522 lung = system: NCI-H522 lung
NCI/ADR-RES ovarian = system: NCI/ADR-RES ovarian
OVCAR-3 ovarian = system: OVCAR-3 ovarian
OVCAR-4 ovarian = system: OVCAR-4 ovarian
OVCAR-5 ovarian = system: OVCAR-5 ovarian
OVCAR-8 ovarian = system: OVCAR-8 ovarian
PC-3 prostate = system: PC-3 prostate
RPMI-8226 leukemia = system: RPMI-8226 leukemia
RXF 393 renal = system: RXF 393 renal
SF-268 CNS = system: SF-268 CNS
SF-295 CNS = system: SF-295 CNS
SF-539 CNS = system: SF-539 CNS
SK-MEL-2 melanoma = system: SK-MEL-2 melanoma
SK-MEL-28 melanoma = system: SK-MEL-28 melanoma
SK-MEL-5 melanoma = system: SK-MEL-5 melanoma
SK-OV-3 ovarian = system: SK-OV-3 ovarian
SN12C renal = system: SN12C renal
SNB-19 CNS = system: SNB-19 CNS
SNB-75 CNS = system: SNB-75 CNS
SW-620 colon = system: SW-620 colon
T-47D breast = system: T-47D breast
TK-10 renal = system: TK-10 renal
U251 CNS = system: U251 CNS
UACC-257 melanoma = system: UACC-257 melanoma
UACC-62 melanoma = system: UACC-62 melanoma
UO-31 renal = system: UO-31 renal

OC1CCN(CCCOc2c3ccccc3nc3c2oc2ccccc23)CC1
GI50 (786-0 renal): 2.3 µM | TGI (786-0 renal): 18 µM | GI50 (A498 renal): 1.73 µM | TGI (A498 renal): 3.38 µM | GI50 (A549 NSCLC): 2.54 µM | TGI (A549 NSCLC): 16.4 µM | GI50 (ACHN renal): 0.8 µM | TGI (ACHN renal): 25.2 µM | GI50 (BT-549 breast): 2.8 µM | TGI (BT-549 breast): 8.88 µM | GI50 (CAKI-1 renal): 1.67 µM | TGI (CAKI-1 renal): 12.9 µM | GI50 (CCRF-CEM leukemia): 2.12 µM | TGI (CCRF-CEM leukemia): 16.3 µM | GI50 (COLO 205 colon): 1.06 µM | TGI (COLO 205 colon): 2.83 µM | GI50 (DU-145 prostate): 3.66 µM | TGI (DU-145 prostate): 23.1 µM | GI50 (EKVX NSCLC): 2.79 µM | TGI (EKVX NSCLC): 12.9 µM | GI50 (HCC-2998 colon): 1.46 µM | TGI (HCC-2998 colon): 3.76 µM | GI50 (HCT-116 colon): 0.505 µM | TGI (HCT-116 colon): 12.3 µM | GI50 (HCT-15 colon): 2.02 µM | TGI (HCT-15 colon): 9.73 µM | GI50 (HOP-62 NSCLC): 2.32 µM | TGI (HOP-62 NSCLC): 11.9 µM | GI50 (HOP-92 NSCLC): 0.853 µM | TGI (HOP-92 NSCLC): 4.28 µM | GI50 (HS 578T breast): 2.38 µM | TGI (HS 578T breast): 8.83 µM | GI50 (HT29 colon): 1.1 µM | TGI (HT29 colon): 3.65 µM | GI50 (IGROV1 ovarian): 2.61 µM | TGI (IGROV1 ovarian): 11.3 µM | GI50 (KM12 colon): 2.99 µM | TGI (KM12 colon): 49.6 µM | GI50 (LOX IMVI melanoma): 0.626 µM | TGI (LOX IMVI melanoma): 3.51 µM | GI50 (M14 melanoma): 2.39 µM | TGI (M14 melanoma): 7.89 µM | GI50 (MALME-3M melanoma): 1.86 µM | TGI (MALME-3M melanoma): 3.95 µM | GI50 (MCF7 breast): 2.31 µM | TGI (MCF7 breast): 10.1 µM | GI50 (MDA-MB-231 breast): 2.37 µM | TGI (MDA-MB-231 breast): 11.1 µM | GI50 (MDA-MB-435): 2.31 µM | TGI (MDA-MB-435): 6.79 µM | GI50 (NCI-H226 lung): 1.9 µM | TGI (NCI-H226 lung): 4.74 µM | GI50 (NCI-H460 lung): 1.59 µM | TGI (NCI-H460 lung): 11.1 µM | GI50 (NCI-H522 lung): 1.57 µM | TGI (NCI-H522 lung): 4.38 µM | GI50 (NCI/ADR-RES ovarian): 1.03 µM | TGI (NCI/ADR-RES ovarian): 8.1 µM | GI50 (OVCAR-3 ovarian): 3.61 µM | TGI (OVCAR-3 ovarian): 24.9 µM | GI50 (OVCAR-4 ovarian): 2.14 µM | TGI (OVCAR-4 ovarian): 8.63 µM | GI50 (OVCAR-5 ovarian): 2.47 µM | TGI (OVCAR-5 ovarian): 9.49 µM | GI50 (OVCAR-8 ovarian): 1.81 µM | TGI (OVCAR-8 ovarian): 6.71 µM | GI50 (PC-3 prostate): 2.12 µM | TGI (PC-3 prostate): 7.93 µM | GI50 (RPMI-8226 leukemia): 2.47 µM | TGI (RPMI-8226 leukemia): 7.46 µM | GI50 (RXF 393 renal): 1.32 µM | TGI (RXF 393 renal): 3.64 µM | GI50 (SF-268 CNS): 2.53 µM | TGI (SF-268 CNS): 14.8 µM | GI50 (SF-295 CNS): 2.39 µM | TGI (SF-295 CNS): 10.5 µM | GI50 (SF-539 CNS): 2.02 µM | TGI (SF-539 CNS): 6.4 µM | GI50 (SK-MEL-2 melanoma): 1.93 µM | TGI (SK-MEL-2 melanoma): 3.59 µM | GI50 (SK-MEL-28 melanoma): 1.93 µM | TGI (SK-MEL-28 melanoma): 3.81 µM | GI50 (SK-MEL-5 melanoma): 1.77 µM | TGI (SK-MEL-5 melanoma): 3.2 µM | GI50 (SK-OV-3 ovarian): 2.56 µM | TGI (SK-OV-3 ovarian): 8.7 µM | GI50 (SN12C renal): 1.7 µM | TGI (SN12C renal): 13.5 µM | GI50 (SNB-19 CNS): 2.36 µM | TGI (SNB-19 CNS): 14.8 µM | GI50 (SNB-75 CNS): 1.86 µM | TGI (SNB-75 CNS): 4.3 µM | GI50 (SW-620 colon): 0.825 µM | TGI (SW-620 colon): 11.9 µM | GI50 (T-47D breast): 2.51 µM | TGI (T-47D breast): 7.27 µM | GI50 (TK-10 renal): 2.41 µM | TGI (TK-10 renal): 7.73 µM | GI50 (U251 CNS): 2.14 µM | TGI (U251 CNS): 12.2 µM | GI50 (UACC-257 melanoma): 1.83 µM | TGI (UACC-257 melanoma): 3.72 µM | GI50 (UACC-62 melanoma): 1.86 µM | TGI (UACC-62 melanoma): 4.43 µM | GI50 (UO-31 renal): 1.18 µM | TGI (UO-31 renal): 3.13 µM

Reference: PubChem BioAssay (NCI)
